US20190192699A1, “NUCLEAR IMAGING AND RADIOTHERAPEUTICS AGENTS TARGETING CARBONIC ANHYDRASE IX AND USES THEREOF” (THE JOHNS HOPKINS UNIVERSITY, priority 2016, published 2019)

Experiments:
CAIX [1] = target: T1, CAIX (Homo sapiens, UniProt Q16790); parameters: host or cells: ccRCC tumours in patients; settings: Wichert et al., 2015; read-out: Kd for CAIX (known / reported); cited from earlier work
CAIX [2] = target: T1, CAIX; experiment: Competitive fluorescence polarization assay for [Al19F]XYIMSR-04, [63/65Cu]XYIMSR-06 and [175Lu]XYIMSR-01; assay type: binding; parameters: purchased R&D Systems; settings: 100 nM CAIX, 80 nM FITC-labeled ligand; read-out: IC50, competitive fluorescence polarization (similar method)
Description: (§1) General Procedures. Solvents and chemicals obtained from commercial sources were of analytical grade or better and used without further purification. Fmoc-protected azidolysine, HBTU, and N-α-fmoc-L-aspartic acid α-tert-butyl ester were purchased from Chem Impex International, Inc. (Wooddale, Ill.). Carrier-free [^111In]InCl3 was purchased from MDS Nordion (Ottawa, ON, Canada). DOTA-NHS-ester (1,4,7,10-tetraazacyclododecane-1,4,7,10-tetraacetic acid mono N-hydroxysuccinimide ester) was purchased from Macrocyclics, Inc. (Dallas, Tex.). Indium (III) nitrate, triethylsilane (Et3SiH), N,N-diisopropylethylamine (DIEA), triethylamine (TEA), piperidine, 4,4-bis(4-hydroxyphenyl)valeric acid, copper iodide (CuI), and tris[(1-benzyl-1H-1,2,3-triazol-4-yl)methyl]amine (TBTA) were purchased from Sigma-Aldrich (Saint Louis, Mo.). Pre-loaded O-bis-(aminoethyl)ethylene glycol on trityl resin was purchased from EMD Millipore (Billerica, Mass.). Flash chromatography was performed using MP SiliTech 32-63 D 60 Å silica gel purchased from Bodman (Aston, Pa.). Recombinant human CAIX was purchased from R&D Systems (Minneapolis, Minn.). 1H NMR spectra were recorded on a Bruker Ultrashield 500 MHz spectrometer. Chemical shifts (δ) were reported in ppm downfield by reference to proton resonances resulting from incomplete deuteration of the NMR solvent. ESI mass spectra were obtained on a Bruker Daltonics Esquire 3000 Plus spectrometer (Billerica, Mass.).
Competitive Fluorescence Polarization Assay for [Al^19F]XYIMSR-04, [^63/65Cu]XYIMSR-06, and [^175Lu]XYIMSR-01. Fluorescence polarization (FP) experiments were performed in 21 μL of the assay buffer (12.5 mM Tris-HCl, pH 7.5, 75 mM NaCl) in transparent flat bottom 384 well Small Volume™ LoBase Microplates (Greiner Bio-One, Frickenhausen Germany). The FP reaction employed 100 nM of purified CAIX (R&D systems, Minneapolis, Minn.) and 80 nM FITC-labeled ligand within the assay buffer. The FP values were measured as mP units using the Safire2™ plate reader (Tecan, Morrisville, N.C.) with excitation at 475 nm and emission at 532 nm emission. 100 nM CAIX was incubated with serially diluted (from 8 μM to 488.2 fM) concentrations of the […] targeting molecules, 2, [Al^19F]XYIMSR-04, [^63/65Cu]XYIMSR-06 and [^175Lu]XYIMSR-01 for 30 min at room temperature in 384 well plates. 80 nM FITC-labeled ligand was added to each well and the reaction was incubated for 30 min at room temperature followed by FP measurements. Experiments were carried out in triplicate and the concentration resulting in 50% response (IC50) was calculated in GraphPad Prism 5 (GraphPad Software, La Jolla, Calif.) using the sigmoidal dose-response regression function.

CAIX [3] = target: T1, CAIX; experiment: Competitive fluorescence polarization assay for [113/115In]XYIMSR-01; assay type: binding; parameters: purchased R&D Systems
Description: as §1
Competitive Fluorescence Polarization Assay for [^113/115In]XYIMSR-01. Fluorescence polarization (FP) experiments were performed in 21 μL of the assay buffer (12.5 mM Tris-HCl, pH 7.5, 75 mM NaCl) in black flat bottom 384-well microplates (Corning, Inc., New York, N.Y.) The FP reaction employed 100 nM of purified CAIX (R&D systems, Minneapolis, Minn.) and 80 nM FITC-labeled 8 (Wichert, et al., 2015) within the assay buffer. The FP values were measured as mP units using the Victor3 multi-label plate reader equipped with excitation (485 nm) and emission (535 nm) filters (Perkin Elmer, Waltham, Mass.). 100 nM CAIX was incubated with serially diluted (from 1 μM to 61 fM) concentrations of the three targeting molecules, 2, XYIMSR-01, and [^113/115In]XYIMSR-01 for 30 min at room temperature in 384-well plates. 80 nM 8 was added to each well and the reaction was incubated for 30 min at room temperature followed by FP measurement. Experiments were carried out in triplicate and the concentration resulting in 50% response (IC50) was calculated in GraphPad Prism 5 (GraphPad Software, La Jolla, Calif.) using the sigmoidal dose-response regression function.

For CC(CCC(=O)N[C@@H](CC(=O)N[C@@H](CC(=O)N[C@@H](CCCCn1cc(CCCC(=O)Nc2nnc(S(N)(=O)=O)s2)nn1)C(=O)NCCOCCOCCN)C(=O)O)C(=O)O)(c1ccc(O)cc1)c1ccc(O)cc1 [compound 3, N^4-((S)-1-((2-(2-(2-aminoethoxy)ethoxy)ethyl)amino)-1-oxo-6-(4-(4-oxo-4((5-sulfamoyl-1,3,4-thiadiazol-2-yl)amino)butyl)-1H-1,2,3-triazol-1-yl)hexan-2-yl)-N^2-((S)-3-(4,4-bis(4-hydroxyphenyl)pentanamido)-3-carboxypropanoyl)-L-asparagine, reference compound], the Kd (CAIX [1]) is given as 2.6 nM, the IC50 (CAIX [2]) is given as 63.6 ± 2.8 nM and the IC50 (CAIX [3]; 100 nM CAIX, 80 nM FITC-labeled 8, read-out: IC50, inhibition of fluorescence polarization of FITC labeled 8) is given as 75.9 nM. For the same compound, the “binding affinity to CAIX (in words)” value (CAIX [3]; competitive fluorescence polarization) was “high binding affinity”.
